Assay results taken from patent US9012414B2, “Cosmetic composition” (Guerlain, priority 2010, dated 2015).
“Also recorded” adds a separate entry of the source.

What was measured:
[1] = system: mitochondrial dehydrogenases (complex I and complex II) of normal human keratinocytes (NHKs); assay: Stimulation of mitochondrial dehydrogenases on keratinocytes (XTT conversion to formazan); format: cell-based; conditions: treatment 48 h; for Stimulation of mitochondrial dehydrogenase activity / mitochondrial respiratory functions (XTT): NHKs without irradiation, 6.25 to 0.78 μg/ml
Protocol: Normal human keratinocytes (NHKs), isolated from eyelids of 37-year-old Caucasian women, are cultured at passage 3 in complemented (Invitrogen) Keratinocyte Serum Free Medium (KSFM, Invitrogen) supplemented with 5% of fetal calf serum (FCS, Invitrogen).
The NHKs are seeded in 96-well plates (Greiner Bio One) in a proportion of 1.10^4 cells/well, and then incubated at 37° C., 5% CO2 for 24 h. These cells are then treated, after UVB irradiation (60 mJ/cm^2 Vilbeit-Lourmat irradiator) or without irradiation, with serial dilutions of the VT1, VT2 and VT3 compounds (from 6.25 to 0.78 μg/ml) diluted in DMSO (sigma) 0.1% v/v final concentration. The plates are incubated at 37° C., 5% CO2. The untreated cells containing 0.1% v/v of DMSO are considered to be a negative control. After treatment for 48 h, the supernatants are removed and the XTT solution (Cell proliferation kit II, Roche Diagnostic) is deposited in each well in order to determine the overall activity of the mitochondrial dehydrogenases. This activity is evaluated by means of the conversion of an XTT tetrazolium salt to soluble formazan, via a cell mechanism which calls for the enzymatic activities of the glycolytic NAD(P)H dehydrogenase (complex I) and of succinate dehydrogenase (complex II), which are constituents of the mitochondrial respiratory chain. The amount of colored formazan (determined by reading optical density at 450 nm) is directly related, firstly, to the enzymatic activity of the mitochondrial dehydrogenases and, secondly, to the amount of metabolically active cells (Roehm et al. J. Immunol. Methods, 1991; 142: 257-265). […] The 96-well plates are read at 450 nm with a spectrofluorometer (SpectraFluor Plus, Tecan). […]
The results are expressed as mean of the optical densities (OD) at 450 nm and standardized relative to the total concentration of cell proteins (expressed in μg/ml), which makes it possible to measure only the activity of the dehydrogenases and to dispel with the impact of cell proliferation on the measurement of the ODs obtained. […]

[2] = system: HaCaT cells; assay: Measurement of mitochondrial biogenesis on modified human keratinocytes (HaCaT), qPCR of 16S and COX2 DNA versus UCP-2; format: cell-based; conditions: 48 h
Protocol: The objective is to verify whether or not the increase in enzymatic activity measured is linked to a basal stimulation of the respiratory chain of the mitochondria initially present or to an increase in the number of intracellular mitochondria, indicative of a stimulation of mitochondrial biogenesis.
The HaCaT cells are cultured in 6-well plates and then treated as described above. After treatment for 48 h, the cells are lysed with a buffer consisting of 10 mM of Tris base, 1 mM EDTA, 0.3M of sodium acetate and 1% SDS (1 ml/well) and according to an incubation time of overnight at 55° C. The mitochondrial DNA is extracted from the cell lysate with a phenol solution (1/1 ratio). Two cycles of centrifugation at 4000 rpm (5 minutes) are carried out. A solution de CHCl3/isoamyl alcohol (24:1, v/v) is then added to the upper aqueous phase, recovered after settling out. The mixture is then centrifuged (5 minutes, 4000 rpm, 4° C.).
Precipitation of the total DNA is induced by adding an absolute ethanol/3M sodium acetate mixture ([…]) to the supernatant. After centrifugation (30 minutes, 12000 rpm, 4° C.), the pellets are washed with EtOH at 70° v/v, and then dried and taken up in deionized water. The DNA is assayed using a spectrometer (Thermo Scientific Nanodrop). The DNA solutions are adjusted to a concentration of 10 ng/μl.
The expression of three different genes is measured by qPCR. This technique makes it possible to measure the amount of DNA polymerized by means of a fluorescent label. […]
The fluorescence is measured after the 45 cycles and the amount of DNA obtained is determined by means of the DNA range.
The results are expressed in amount of 16S and COX2 (QCOX2) DNA, calculated according to the amount of UCP-2 genomic DNA (QUCP-2), and which is defined as (QCOX2)/(QUCP-2)
A calculated (QCOX2)/(QUCP-2) ratio of greater than 1 indicates an increase in the amount of mitochondrial DNA, and reflects an increase in the number of intracellular mitochondria.

[3] = Solubility of the isolated vandaterosides; format: physicochemical
[4] = system: cytochrome C oxidase; assay: Stimulation of cytochrome C oxidase on modified human keratinocytes (HaCaT); format: cell-based; conditions: for Activation of cytochrome C oxidase activity: HaCaT cells, treatment 3 h, positive control resveratrol 11.41 μg/ml (50 μM)
Protocol: The objective of the study is to evaluate the potential of the compounds which are the subject of the invention for stimulating the performance levels of the mitochondrial respiratory chain. The assays are carried out on genetically modified human keratinocytes (HaCaT).
The HaCaT cells were cultured in 6-well plates in RPMI 1640 medium (Roswell Park Memorial Institute) w/o HEPES (Invitrogen) supplemented with 10% of fetal calf serum (FCS, Invitrogen) and a penicillin/streptomycin mixture, until confluence. They were then treated, in DMEM (Dulbecco's Modified Eagle Medium, Invitrogen) containing 4.5 g/L of glucose, 0.1% BSA (Bovine Serum albumin AM2618 Invitrogen), with serial dilutions of vandaterosides (from 6.25 to 0.78 μg/ml) diluted in DMSO (0.1% v/v final concentration). Resveratrol (Sigma) at 50 μM, i.e. 11.41 μg/ml, was used as positive reference. The untreated cells containing 0.1% v/v of DMSO were considered to be a negative control. After treatment for 3 h, the cells were lysed (20 mM HEPES, 0.1% Triton, 1 mM EDTA) and the total cell proteins were assayed by means of the Bradford technique (B6916 Sigma). The total protein concentration of each sample was then adjusted to 2 mg/ml.
The cell lysate was incubated in the presence of an assay buffer (Sigma) in order to determine the enzymatic kinetics without the addition of substrate, denoted Vo. Cytochrome C (from equine heart C-7752 Sigma) reduced with DTT (dithiothreitol, Sigma) was added to the assay buffer at 50 μM in order to measure the rate of the enzymatic reaction. The disappearance of the reduced cytochrome C was monitored using a spectrophotometer [Beckman DU 640] at 550 nm for 90 seconds according to the manufacturer's (Sigma) instructions. The results were calculated from the enzymatic kinetics curves and are expressed as cytochrome C oxidase activity (U/μg of proteins).
The equations allowing the calculation of the enzymatic activities are the following: Enzymatic activity of cytochrome C in U/ml=ACOX=(DA/min)/21.84 with: • DA/min=A/min(v)−A/min (v0) • 21.84 (mM)=ε(molar extinction coefficient) of ferrocytochrome C at 550 nm • A=Absorbance at 550 nm • A/min(v)=Absorbance at 550 nm at time “v” in minutes, corresponding to the time of the measurement after the addition of the substrate; • A/min (v0)=Absorbance at 550 nm at time “v0” (at the start, i.e. before the addition of substrate) in minutes.
The results are expressed by comparison of the enzymatic activity measured in the presence of the vandaterosides (ACOX samples) relative to the control enzymatic activity (ACOX control): i.e. (ACOX samples)/(ACOX control).
A calculated (ACOX samples)/(ACOX control) ratio of greater than 1 indicates stimulation of the activity of cytochrome C oxidase in the presence of the samples.

[5] = system: keratinocyte differentiation proteins (transglutaminase, involucrin, desmoglein 1); assay: Stimulation of the differentiation of normal human keratinocytes (immunolabeling of differentiation proteins); format: cell-based; conditions: NHKs, 12 μg/ml, treatment 5 days
Protocol: (§1) The NHKs are cultured at passage 3 in complete KSFM medium in a T75 flask. At the pre-confluence stage, the NHKs are trypsinized and seeded in a proportion of 20 000 cells per well in 8-well Lab-Tek II culture systems (Nalge Nunc International), 4 wells per treatment condition. At 80% confluence, the cells are treated for 5 days with the various compositions of active agents (VT1, VT2, VT3, each at 12 μg/ml) until the post-confluence stage is reached. Vitactyl® clair (extract of Malva sylvestris, Silab) at 3% is used as a positive control.
(§2) The cells are rinsed with PBS (PBS Tablets, Invitrogen GIBCO) and then fixed with formalin (Formalin Solution, 10%, Neutral Buffered, Sigma) for 10 minutes.
(§3) After rinsing with PBS, the culture chambers are filled with a 0.1% Triton solution (Triton X-100, Sigma) for 10 minutes in order to permeabilize the membranes, and then rinsed twice with PBS. The cells are then covered with a solution of PBS/1% BSA (BSA, Sigma) for 30 minutes at ambient temperature. The PBS/BSA solution is removed from the slides by inclining them on absorbent paper. […]
(§4) For each condition, four photos are taken in green fluorescence (expression of the markers) with the ×20 objective. […]
(§5) The photos are analyzed using the Leica QWin image analysis software. A program is created in order to quantify the expression of these differentiation markers.

[6] = system: involucrin; assay: Involucrin expression in normal human keratinocytes (immunolabeling); format: cell-based; conditions: NHKs, 12 μg/ml, treatment 5 days
Protocol: as §1, §2, §3, §4, §5

[7] = concentrations tested other than VT1 at 6.25 μg/ml

| SMILES | Stimulation of mitochondrial dehydrogenase activity / mitochondrial respiratory functions (XTT) [1] | Activation of mitochondrial biogenesis (increase in number of intracellular mitochondria) ([2]; 6.25 μg/ml, the exception means activation was seen) | Activation of mitochondrial biogenesis (increase in number of intracellular mitochondria) [2, 7] | Solubility in MeOH and DMSO [3] | Solubility in water ([3]; water) | Activation of cytochrome C oxidase activity ([4]; 6.25 to 0.78 μg/ml) | Dose effect on cytochrome C oxidase activity ([4]; HaCaT, 6.25 to 0.78 μg/ml, 3 h) | Stimulation of keratinocyte differentiation protein expression compared with the negative control [5] | Stimulation of the activity of the dehydrogenases relative to the negative control ([1]; NHKs, 0.78 μg/ml (1 μM), negative control DMSO 0.1%) | Involucrin expression compared with positive control Vitactyl clair at 3% [6] | Concentration at which a gel forms in water ([3]; water) | Cytochrome C oxidase activity level compared with resveratrol ([4]; HaCaT, 1.56 μg/ml (2 μM), 3 h, versus resveratrol 11.41 μg/ml (50 μM)) |
| --- | --- | --- | --- | --- | --- | --- | --- | --- | --- | --- | --- | --- |
| O=C(CC(O)(Cc1ccc(O)cc1)C(=O)O)OCc1ccc(O[C@@H]2O[C@H](CO)C(O)[C@H](O)[C@H]2O)cc1 (stereo partly drawn) [VT1, 4-(4-β-D-glucopyranosyloxybenzyl)-(2R)-2-(p-hydroxybenzyl) malate] | most effectively stimulate | with the exception of VT1 at 6.25 μg/ml | neither of the two compounds induces an activation of mitochondrial biogenesis | soluble | low solubility | stimulatory effect | A dose effect is observed | most effective |  |  |  |  |
| O=C(CC(O)(Cc1ccc(O)cc1)C(=O)OCc1ccc(O[C@@H]2O[C@H](CO)[C@@H](O)[C@H](O)[C@H]2O)cc1)OCc1ccc(O[C@@H]2O[C@H](CO)[C@@H](O)[C@H](O)[C@H]2O)cc1 (stereo partly drawn) [VT2, 1,4-bis(4-β-D-glucopyranosyloxybenzyl)-(2R)-2-(p-hydroxybenzyl) malate] | most effectively stimulate |  | neither of the two compounds induces an activation of mitochondrial biogenesis | soluble | low solubility | stimulatory effect; also recorded: best cytochrome C oxidase activator |  | most effective | +39% | greater than that of the positive control | approximately 10 mM | comparable to resveratrol |
| O=C(/C=C/c1ccccc1)O[C@H]1[C@H](OC(CC(=O)OCc2ccc(O[C@@H]3O[C@H](CO)[C@@H](O)[C@H](O)[C@H]3O)cc2)(Cc2ccc(O)cc2)C(=O)OCc2ccc(O[C@@H]3O[C@H](CO)[C@@H](O)[C@H](O)[C@H]3O)cc2)O[C@H](CO)[C@@H](O)[C@@H]1O (stereo partly drawn) [VT3, 14-bis(4-β-D-glucopyranosyloxybenzyl)-(2R)-2-(2-β-D-glucopyranosyl-3-trans-cinnamoyl ester)-2-(p-hydroxybenzyl)malate] |  |  |  | soluble | low solubility |  |  |  |  |  |  |  |
